From ChEMBL document CHEMBL5038628, “Discovery of spiro amide SHR902275: A potent, selective, and efficacious RAF inhibitor targeting RAS mutant cancers” (Eur J Med Chem, 2022) come the findings set out here.

The structures appear in SMILES notation. Values after ≈ are worked out from the molar mass of the structure shown.

For one data set, the system named is NCI-H358. The experiment in a line: Cytotoxicity against human NCI-H358 cells assessed as inhibition of growth measured after 72 hrs by CellTiter-Glo luciferase assay. Type of data set: functional.
Data set [1] deals with RAF proto-oncogene serine/threonine-protein kinase (Homo sapiens, UniProt P04049). The data set can be described thus: Inhibition of human recombinant cRAF measured after 60 mins by TR-FRET assay.
RAF proto-oncogene serine/threonine-protein kinase, sequence (P04049 whole entry): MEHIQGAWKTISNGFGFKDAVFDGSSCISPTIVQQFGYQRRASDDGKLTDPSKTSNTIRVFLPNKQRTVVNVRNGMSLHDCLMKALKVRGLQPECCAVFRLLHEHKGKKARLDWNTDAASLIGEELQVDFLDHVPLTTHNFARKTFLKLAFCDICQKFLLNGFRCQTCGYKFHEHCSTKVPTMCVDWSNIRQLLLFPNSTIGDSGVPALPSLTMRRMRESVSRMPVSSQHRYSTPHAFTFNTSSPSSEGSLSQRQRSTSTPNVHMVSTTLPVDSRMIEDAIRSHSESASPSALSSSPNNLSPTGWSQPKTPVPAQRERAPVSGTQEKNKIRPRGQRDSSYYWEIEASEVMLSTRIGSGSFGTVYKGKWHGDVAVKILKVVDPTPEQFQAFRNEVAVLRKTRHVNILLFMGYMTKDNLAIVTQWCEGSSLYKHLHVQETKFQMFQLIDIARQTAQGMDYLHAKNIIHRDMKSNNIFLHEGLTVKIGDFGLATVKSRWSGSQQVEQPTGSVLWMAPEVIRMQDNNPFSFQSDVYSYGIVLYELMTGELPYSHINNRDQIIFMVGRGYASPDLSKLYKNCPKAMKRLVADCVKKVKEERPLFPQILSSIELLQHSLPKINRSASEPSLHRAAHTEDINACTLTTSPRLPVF
Data set [2] is described as follows: Solubility of the compound at pH 7.4. The conditions noted are these: buffer.
Data set [3] can be described thus: Metabolic stability in human liver microsomes assessed as half life. It is filed as ADME, Microsome.
Data set [4] can be described thus: AUC (0 to t) in Sprague-Dawley rat plasma at 2 mg/kg, IG by LC-MS/MS analysis. It is filed as ADME, organism-based. Details: dose 2 mg/kg. Conditions: Sprague-Dawley, plasma, po.
The nature of data set [5]: Oral bioavailability in Sprague-Dawley rat by LC-MS/MS analysis. It is filed as ADME, organism-based. Conditions: Sprague-Dawley, in vivo.
The nature of data set [6]: Half life in Sprague-Dawley rat plasma at 1 mg/kg, iv by LC-MS/MS analysis. It is filed as ADME, organism-based.
A short description of data set [7]: Clearance in Sprague-Dawley rat plasma at 1 mg/kg, iv by LC-MS/MS analysis. Type of data set: ADME, organism-based.
The nature of data set [8]: Cmax in Sprague-Dawley rat plasma at 2 mg/kg, IG by LC-MS/MS analysis. It is filed as ADME, organism-based. Details: route […], dose 2 mg/kg. Conditions: po.
Data set [9] in a line: MRT (0 to infinity) in Sprague-Dawley rat plasma at 1 mg/kg, iv by LC-MS/MS analysis. It is filed as ADME, organism-based. The conditions noted are these: in vivo.
Data set [10] in a line: AUC (0 to t) in Sprague-Dawley rat plasma at 1 mg/kg, iv by LC-MS/MS analysis. It is filed as ADME, organism-based. Details: dose 1 mg/kg.

As for `Cc1ccc(NS(=O)(=O)c2ccnc(C(F)(F)F)c2)cc1-c1ccc2c(c1)OC1(CCOCC1)CC(=O)N2`, the GI50 with NCI-H358 was > 30000 nM. In addition, in data set [1], the IC50 was determined as 32 nM.
For `COc1nnc(C(=O)Nc2ccc(C)c(-c3ccc4c(c3)OC3(CCOCC3)CC(=O)N4)c2)cc1C(F)(F)F`, the solubility in data set [2] amounted to 3.6 µM (≈ 1.95 µg/mL). Moreover, in the data set with NCI-H358, the GI50 amounted to 2600 nM. Besides, the half-life in [3] worked out at 57 min. In addition, the IC50 in [1] was found to be 22 nM.
`Cc1cc(F)c(NC(=O)Cc2ccnc(C(F)(F)F)c2)cc1-c1ccc2c(c1)OC1(CCOCC1)CC(=O)N2`: in the data set on NCI-H358, the GI50 is 9400 nM. The IC50 in data set [1] was found to be 3.2 nM.
`Cc1ccc(NC(=O)c2cnnc(C(F)(F)F)c2)cc1-c1ccc2c(c1)OC1(CCOCC1)CC(=O)N2` registered a solubility in [2] of 0.44 µM (≈ 0.225 µg/mL). The compound further yielded an AUC(0-t) in [4] of 176 ng·h/mL. The compound further had a bioavailability in data set [5] of 9.2%. Moreover, the GI50 in the data set on NCI-H358 worked out at 2000 nM. This compound had a half-life in data set [6] (Sprague-Dawley, plasma) of 90 min. In addition, in data set [7], the clearance came to 16.1 mL/min/kg. Further, in [8], the Cmax is 40 ng/mL. The IC50 in [1] turned out to be 3.2 nM.
For the compound `Cc1ccc(NC(=O)c2cncc(C(F)(F)F)n2)cc1-c1ccc2c(c1)OC1(CCOCC1)CC(=O)N2`, the GI50 in the data set with NCI-H358 came to 5200 nM. For the same compound, the IC50 in data set [1] came out at 3.3 nM.
For `Cc1cc(F)c(NC(=O)N(C)c2ccnc(C(F)(F)F)c2)cc1-c1ccc2c(c1)OC1(CCOCC1)CC(=O)N2` the same measures were 9400 nM and 4.7 nM.
For `Cc1ccc(NC(=O)c2ccnc(C(F)(F)F)c2)cc1-c1ccc2c(c1)OC1(CCN2)CCOCC1`, the GI50 with NCI-H358 turned out to be 13000 nM. Also, in data set [1], the IC50 was found to be 5.4 nM.
For `Cc1ncc(NC(=O)c2ccnc(C(F)(F)F)c2)cc1-c1ccc2c(c1)OC1(CCOCC1)CC(=O)N2` the same measures were 6300 nM and 5 nM.
In the same order, the values of `Cc1ccc(NC(=O)c2cc(C(F)(F)F)nn2C)cc1-c1ccc2c(c1)OC1(CCOCC1)CC(=O)N2` are 13000 nM and 28 nM.
`Cc1ccc(NC(=O)c2cc(C(F)(F)F)cnn2)cc1-c1ccc2c(c1)OC1(CCOCC1)CC(=O)N2C`: the solubility in data set [2] was determined as 2.3 µM (≈ 1.21 µg/mL). In addition, the GI50 in the data set with NCI-H358 was 1300 nM. In data set [3], the half-life amounted to 4.6 min. Moreover, the IC50 in data set [1] is 3.9 nM.
In the case of `Cc1cnc(NC(=O)c2ccnc(C(F)(F)F)c2)cc1-c1ccc2c(c1)OC1(CCOCC1)CC(=O)N2`, in the data set with NCI-H358, the GI50 was 3800 nM. Also, the half-maximal inhibitory concentration (IC50) in data set [1] came out at 1.8 nM.
Turning to `Cc1ccc(NC(=O)N2CCCC(C(F)(F)F)C2)cc1-c1ccc2c(c1)OC1(CCOCC1)CC(=O)N2` (configuration not stated), in the data set on NCI-H358, the GI50 was 5500 nM. Further, the IC50 in [1] was determined as 13 nM.
`Cc1ccc(-c2nnc(-c3ccnc(C(F)(F)F)c3)[nH]2)cc1-c1ccc2c(c1)OC1(CCOCC1)CC(=O)N2`: the exposure AUC(0-t) in [4] was 38.6 ng·h/mL; in data set [10] it was 999 ng·h/mL. Besides, the bioavailability in data set [5] was 2.16%. In addition, the MRT in data set [9] came to 155 min. Also, the GI50 with NCI-H358 is 2500 nM. The t1/2 in data set [6] (in vivo, 1 mg/kg) worked out at 227 min. For the same compound, the clearance in [7] is 17.1 mL/min/kg. Besides, the IC50 in [1] was 48 nM.
For the compound `Cc1ccc(C(=O)Nc2ccnc(C(F)(F)F)c2)cc1-c1ccc2c(c1)OC1(CCOCC1)CC(=O)N2`, in the data set on NCI-H358, the GI50 amounted to 8600 nM. Moreover, the IC50 in data set [1] was determined as 21 nM.
`Cc1ccc(NC(=O)c2nccc(C(F)(F)F)n2)cc1-c1ccc2c(c1)OC1(CCOCC1)CC(=O)N2` showed a solubility in [2] of 1.4 µM (≈ 0.717 µg/mL). Besides, the GI50 in the data set on NCI-H358 amounted to 2300 nM. In addition, in [1], the IC50 was determined as 2 nM.
For `Cc1ccc(NC(=O)c2ccnc(C(F)(F)F)c2)cc1-c1ccc2c(c1)OC1(CCOCC1)CC(=O)N2C`, the GI50 in the data set on NCI-H358 was found to be 7100 nM. Besides, in data set [1], the IC50 was found to be 4.5 nM.
As for `Cc1ccc(NC(=O)c2ccnc(C3CC3)c2)cc1-c1ccc2c(c1)OC1(CCOCC1)CC(=O)N2`, the concentration in solution in [2] (solubility) was 0.61 µM (≈ 0.295 µg/mL). Besides, in the data set on NCI-H358, the GI50 came out at 2500 nM. The IC50 in [1] amounted to 7.1 nM.
For `Cc1ccc(NC(=O)c2cc(C(F)(F)F)cnn2)cc1-c1ccc2c(c1)OC1(CCOCC1)CC(=O)N2CCO`, the GI50 in the data set on NCI-H358 came to 2600 nM. For the same compound, the half-life in data set [3] is 11 min. Besides, the IC50 in [1] turned out to be 2.6 nM.
For the compound `Cc1ccc(NC(=O)c2ccnc(C(F)(F)F)c2)cc1-c1ccc2c(c1)OC1(CCOCC1)CC(=O)N2CCO`, the concentration for 50% growth inhibition (GI50) in the data set on NCI-H358 was found to be 4700 nM. For the same compound, in data set [1], the 50% inhibitory concentration (IC50) worked out at 0.83 nM.
As to `Cc1ccc(NC(=O)c2cccc(C(F)(F)F)n2)cc1-c1ccc2c(c1)OC1(CCOCC1)CC(=O)N2`, the GI50 in the data set with NCI-H358 was determined as 6800 nM. Further, the IC50 in data set [1] stood at 19.7 nM.
On to `Cc1ccc(NC(=O)c2cc(C(F)F)cnn2)cc1-c1ccc2c(c1)OC1(CCOCC1)CC(=O)N2`, for which, in data set [2], the concentration in solution (solubility) came to 7 µM (≈ 3.46 µg/mL). Further, the GI50 in the data set on NCI-H358 is 3900 nM. Also, in data set [1], the IC50 is 0.8 nM.
